Data published in the supplement of paper PMC10307832.

What was measured:
Assay in all cases: relative viability (nuclei count vs DMSO), 5 days (fraction); higher = more cells survive
Gemcitabine + Decitabine = compound: Nc1ccn([C@@H]2O[C@H](CO)[C@@H](O)C2(F)F)c(=O)n1 [Gemcitabine] + Nc1ncn([C@H]2C[C@H](O)[C@@H](CO)O2)c(=O)n1 [Decitabine] (partner 2 µM)
Outline: (§1)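 A single step with final 0.05% Triton X-100, 1% formaldehyde and 1 ug/ml Hoechst fixed the cells and stained nuclei 5 days after treatment. Lung cancer cell lines in 1536-well plates had been treated by pin tool the day after seeding with one drug alone or a fixed anchor-drug dose plus five library-drug doses (not always all listed) in √10 steps, and nuclei were counted on 4× images. Relative viability is the ratio of nuclei in treated wells to nuclei in vehicle wells, taken as the median of duplicate plates.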

Gemcitabine + Crizotinib = compound: Nc1ccn([C@@H]2O[C@H](CO)[C@@H](O)C2(F)F)c(=O)n1 [Gemcitabine] + C[C@@H](Oc1cc(-c2cnn(C3CCNCC3)c2)cnc1N)c1c(Cl)ccc(F)c1Cl [Crizotinib] (partner 1 µM)
Outline: as §1

Gemcitabine + Phenformin = compound: Nc1ccn([C@@H]2O[C@H](CO)[C@@H](O)C2(F)F)c(=O)n1 [Gemcitabine] + N=C(N)NC(=N)NCCc1ccccc1 [Phenformin] (partner 250 µM)
Outline: as §1

Gemcitabine + Navitoclax = compound: Nc1ccn([C@@H]2O[C@H](CO)[C@@H](O)C2(F)F)c(=O)n1 [Gemcitabine] + CC1(C)CCC(c2ccc(Cl)cc2)=C(CN2CCN(c3ccc(C(=O)NS(=O)(=O)c4ccc(N[C@H](CCN5CCOCC5)CSc5ccccc5)c(S(=O)(=O)C(F)(F)F)c4)cc3)CC2)C1 [Navitoclax] (partner 0.5 µM)
Outline: as §1

Cell Line	relative viability (Gemcitabine + Decitabine; first compound 0.001 µM)	relative viability (Gemcitabine + Decitabine; first compound 0.003162 µM)	relative viability (Gemcitabine + Decitabine; first compound 0.01 µM)	relative viability (Gemcitabine + Decitabine; first compound 0.03162 µM)	relative viability (Gemcitabine + Decitabine; first compound 0.1 µM)	relative viability (Gemcitabine + Crizotinib; first compound 0.001 µM)	relative viability (Gemcitabine + Crizotinib; first compound 0.003162 µM)	relative viability (Gemcitabine + Crizotinib; first compound 0.01 µM)	relative viability (Gemcitabine + Crizotinib; first compound 0.03162 µM)	relative viability (Gemcitabine + Crizotinib; first compound 0.1 µM)	relative viability (Gemcitabine + Phenformin; first compound 0.001 µM)	relative viability (Gemcitabine + Phenformin; first compound 0.003162 µM)	relative viability (Gemcitabine + Phenformin; first compound 0.01 µM)	relative viability (Gemcitabine + Phenformin; first compound 0.03162 µM)	relative viability (Gemcitabine + Phenformin; first compound 0.1 µM)	relative viability (Gemcitabine + Navitoclax; first compound 0.001 µM)	relative viability (Gemcitabine + Navitoclax; first compound 0.003162 µM)	relative viability (Gemcitabine + Navitoclax; first compound 0.01 µM)	relative viability (Gemcitabine + Navitoclax; first compound 0.03162 µM)	relative viability (Gemcitabine + Navitoclax; first compound 0.1 µM)
NCI-H727	0.846	0.477	0.569	0.451	0.47	0.771	0.32	0.243	0.266	0.219	0.46	0.448	0.348	0.419	0.322	0.311	0.229	0.115	0.146	0.081
NCI-H838	0.442	0.485	0.365	0.281	0.187	0.912	0.981	0.858	0.324	0.139	0.634	0.675	0.521	0.19	0.0985	1.17	1.36	1.09	0.367	0.176
NCI-H1355	0.338	0.294	0.25	0.198	0.191	0.996	0.706	0.193	0.158	0.141	0.444	0.297	0.214	0.202	0.178	0.937	0.461	0.168	0.109	0.112
NCI-H1437	0.572	0.553	0.515	0.364	0.269	1.07	0.863	0.617	0.162	0.121	0.313	0.213	0.193	0.17	0.112	1.06	1.05	0.555	0.206	0.111
NCI-H1650	0.467	0.369	0.239	0.222	0.155	0.974	0.875	0.638	0.158	0.145	0.437	0.202	0.154	0.129	0.121	1.57	0.851	0.434	0.176	0.11
NCI-H1651	0.639	0.406	0.596	0.509	0.172	0.913	0.855	0.85	0.346	0.138	0.392	0.359	0.335	0.151	0.155	1.07	1.16	0.928	0.204	0.0844
NCI-H1666	0.686	0.55	0.712	0.538	0.447	0.959	1.16	0.596	0.321	0.268	0.559	0.476	0.383	0.378	0.355	0.872	0.836	0.393	0.281	0.275
NCI-H1734	0.536	0.343	0.192	0.134	0.102	0.8	0.48	0.246	0.106	0.104	0.337	0.29	0.163	0.0972	0.106	0.843	0.562	0.195	0.106	0.0836
NCI-H1755	0.708	0.667	0.65	0.568	0.469	0.92	0.845	0.681	0.268	0.218	0.582	0.651	0.482	0.4	0.336	0.925	1.04	0.827	0.256	0.153
NCI-H1792	0.406	0.291	0.0943	0.0857	0.0713	1.05	0.897	0.222	0.0949	0.0981	0.291	0.104	0.0944	0.119	0.0679	0.828	0.581	0.133	0.0844	0.0803
NCI-H1915	0.255	0.262	0.254	0.258	0.182	0.967	0.87	0.881	0.426	0.247	0.353	0.356	0.344	0.279	0.214	0.768	0.789	0.785	0.797	0.364
NCI-H1944	0.44	0.409	0.443	0.381	0.193	1.28	1.02	0.953	0.304	0.141	0.225	0.193	0.169	0.161	0.132	1.11	1.01	0.897	0.692	0.209
NCI-H1975	0.307	0.373	0.387	0.197	0.167	0.996	1.01	0.48	0.201	0.16	0.416	0.268	0.176	0.129	0.122	1.07	1.14	0.463	0.228	0.179
NCI-H1993	0.549	0.524	0.564	0.44	0.356	0.89	0.891	0.668	0.549	0.461	0.461	0.485	0.439	0.421	0.407	1.1	1.01	0.583	0.673	0.513
NCI-H2009	0.363	0.264	0.233	0.141	0.114	1.18	0.841	0.227	0.102	0.0943	0.496	0.317	0.198	0.175	0.146	1.25	0.87	0.366	0.0871	0.0975
NCI-H2023	0.224	0.217	0.126	0.0929	0.0689	0.702	0.633	0.504	0.095	0.0687	0.35	0.327	0.192	0.0945	0.0668	0.986	0.794	0.667	0.135	0.0835
